Test results: patent publication US20080139564A1, “SUBSTITUTED PHENYL PROPYL AMINES AS HISTAMINE H3 RECEPTOR AND SEROTONIN TRANSPORTER MODULATORS” (priority 2006, published 2008)

Experiments:
[1] = molecular target: T1, human H3 receptor (Homo sapiens, UniProt Q9Y5N1); assay: H3 receptor binding (N-[3H]-α-methylhistamine displacement, SK-N-MC cell membranes); conditions: 0.8 nM N-[3H]-α-methylhistamine, 60 min at 25° C.
T1 construct: expressed in transfected cells
Method: Binding of compounds to the cloned human H3 receptor, stably expressed in SK-N-MC cells, was performed (Lovenberg, T. W. et al. J. Pharmacol. Exp. Ther. 2000, 293, 771-778). Briefly, cell pellets from SK-N-MC cells expressing the human H3 receptor were homogenized in 50 mM Tris-HCl/5 mM EDTA and re-centrifuged at 30,000 g for 30 min. Pellets were re-homogenized in 50 mM Tris/5 mM EDTA (pH 7.4). Membranes were incubated with 0.8 nM N—[^3H]-α-methylhistamine plus/minus test compounds for 60 min at 25° C. and harvested by rapid filtration over GF/C glass fiber filters (pretreated with 0.3% polyethylenimine) followed by four washes with ice-cold buffer. Nonspecific binding was defined in the presence of 10 μM histamine.

[2] = molecular target: T2, Rat SERT (Rattus norvegicus, UniProt P31652); assay: Rat brain SERT binding ([3H]-Citalopram displacement, rat brain membranes); conditions: 0.6 nM [3H]-Citalopram, 60 min at 25° C.
T2 construct: A rat brain without cerebellum (Zivic Laboratories, Inc.—Pittsburgh, Pa.) was homogenized; tissue Zivic Laboratories, Inc; host or cells: rat brain without cerebellum
Method: A rat brain without cerebellum (Zivic Laboratories, Inc.—Pittsburgh, Pa.) was homogenized in a 52.6 mM Tris pH 8/126.4 mM NaCl/5.26 mM KCl mixture and centrifuged at 1,000 rpm for 5 min. The supernatant was removed and re-centrifuged at 15,000 rpm for 30 min. Pellets were re-homogenized in a 52.6 mM Tris pH8/126.4 mM NaCl/5.26 mM KCl mixture. Membranes were incubated with 0.6 nM [^3H]-Citalopram plus/minus test compounds for 60 min at 25° C. and harvested by rapid filtration over GF/C glass fiber filters (pretreated with 0.3% polyethylenimine) followed by four washes with ice-cold buffer. Nonspecific binding was defined in the presence of 100 μM fluoxetine.

[3] = molecular target: T3, human SERT (Homo sapiens, UniProt P31645); assay: Human SERT binding (3H-citalopram displacement, HEK293 membranes); conditions: 3H-citalopram 3.1 nM, rt for 1 h
T3 construct: expressed in transfected cells; host or cells: HEK293
Method: Homogenized HEK293 (Human Embryonic Kidney) membranes expressing the human SERT were incubated with ^3H-citalopram (SERT) at rt for 1 h in 50 mM Tris, 120 mM NaCl, 5 mM KCl (pH 7.4). Nonspecific binding was determined in the presence of 10 μM fluoxetine for the SERT. The membranes were washed and the radioactivity was counted as above. Calculations for Ki at the SERT were based on a Kd value for ^3H-citalopram and a ligand concentration of 3.1 nM.

[4] = molecular target: T1, human H3 receptor; assay: Cyclic AMP accumulation (β-galactosidase reporter in SK-N-MC cells); type: cell-based; conditions: read-out: pA2 (converted)
Method: Sublines of SK-N-MC cells were created that expressed a reporter construct and the human H3 receptor. The reporter gene (β-galactosidase) is under the control of multiple cyclic AMP responsive elements. In 96-well plates, histamine was added directly to the cell media followed 5 min later by an addition of forskolin (5 μM final concentration). When appropriate, antagonists were added 10 min prior to agonist addition. After a 6-h incubation at 37° C., the media was aspirated and the cells washed with 200 μL of phosphate-buffered saline followed by a second aspiration. Cells were lysed with 25 μL 0.1× assay buffer (10 mM Na-phosphate, pH 8, 0.2 mM MgSO4, 0.01 mM MnCl2) and incubated at rt for 10 min. Cells were then incubated for 10 min with 100 μL of 1× assay buffer containing 0.5% Triton and 40 mM β-mercaptoethanol. Color was developed using 25 μL of 1 mg/mL substrate solution (chlorophenolred β-D galactopyranoside; Roche Molecular Biochemicals, Indianapolis, Ind.). Color was quantitated on a microplate reader at absorbance 570 nm. The pA2 values were calculated by Schild regression analysis of the pEC50 values.

T1 sequence (Q9Y5N1 whole entry): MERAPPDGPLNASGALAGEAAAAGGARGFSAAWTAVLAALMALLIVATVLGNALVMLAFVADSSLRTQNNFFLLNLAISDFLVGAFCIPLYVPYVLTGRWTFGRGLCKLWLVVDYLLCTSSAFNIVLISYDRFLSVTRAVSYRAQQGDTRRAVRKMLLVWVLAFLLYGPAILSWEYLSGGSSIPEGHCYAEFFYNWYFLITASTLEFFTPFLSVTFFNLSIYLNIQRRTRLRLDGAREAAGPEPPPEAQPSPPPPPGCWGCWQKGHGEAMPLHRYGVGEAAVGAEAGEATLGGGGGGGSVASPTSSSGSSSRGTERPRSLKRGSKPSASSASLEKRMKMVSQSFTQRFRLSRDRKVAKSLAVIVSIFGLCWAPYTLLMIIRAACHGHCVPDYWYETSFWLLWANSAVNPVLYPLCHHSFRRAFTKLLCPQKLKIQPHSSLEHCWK
T2 sequence (P31652 whole entry): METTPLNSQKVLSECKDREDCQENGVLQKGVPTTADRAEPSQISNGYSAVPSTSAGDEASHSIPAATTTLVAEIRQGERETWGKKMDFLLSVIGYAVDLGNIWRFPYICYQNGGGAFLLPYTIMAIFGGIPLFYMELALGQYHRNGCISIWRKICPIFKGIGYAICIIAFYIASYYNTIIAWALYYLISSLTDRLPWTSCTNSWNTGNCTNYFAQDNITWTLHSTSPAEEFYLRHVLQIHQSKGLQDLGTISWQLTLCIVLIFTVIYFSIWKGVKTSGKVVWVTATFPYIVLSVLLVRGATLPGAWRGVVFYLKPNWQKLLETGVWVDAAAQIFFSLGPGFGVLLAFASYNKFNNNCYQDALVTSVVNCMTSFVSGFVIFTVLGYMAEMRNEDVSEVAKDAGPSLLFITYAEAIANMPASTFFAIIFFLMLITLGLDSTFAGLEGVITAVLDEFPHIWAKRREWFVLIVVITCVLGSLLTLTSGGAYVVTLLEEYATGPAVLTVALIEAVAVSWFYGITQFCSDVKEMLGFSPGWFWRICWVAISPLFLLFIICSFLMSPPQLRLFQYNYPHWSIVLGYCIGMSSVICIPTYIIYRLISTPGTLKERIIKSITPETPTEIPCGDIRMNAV
T3 sequence (P31645 whole entry): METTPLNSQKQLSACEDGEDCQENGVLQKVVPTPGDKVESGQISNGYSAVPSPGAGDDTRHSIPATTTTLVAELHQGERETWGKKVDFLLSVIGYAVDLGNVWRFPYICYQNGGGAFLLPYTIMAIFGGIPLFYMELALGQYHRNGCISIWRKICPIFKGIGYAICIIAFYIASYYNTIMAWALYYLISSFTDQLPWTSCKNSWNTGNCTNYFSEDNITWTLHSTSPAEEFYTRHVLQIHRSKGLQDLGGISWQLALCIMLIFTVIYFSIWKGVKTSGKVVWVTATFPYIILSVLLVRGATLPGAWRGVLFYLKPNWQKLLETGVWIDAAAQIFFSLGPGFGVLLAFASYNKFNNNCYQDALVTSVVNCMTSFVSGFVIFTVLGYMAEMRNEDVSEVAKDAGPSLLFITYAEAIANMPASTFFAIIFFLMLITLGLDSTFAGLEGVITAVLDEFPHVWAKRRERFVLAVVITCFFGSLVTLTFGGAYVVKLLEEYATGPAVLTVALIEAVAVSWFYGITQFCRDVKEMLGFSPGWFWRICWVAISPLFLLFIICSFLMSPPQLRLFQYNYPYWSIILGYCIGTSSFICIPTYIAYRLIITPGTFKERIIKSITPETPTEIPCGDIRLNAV

| Ki [1] | Ki [2] | Ki [3] | Kb [4] | Structure (SMILES) |
| --- | --- | --- | --- | --- |
| 1 nM | 18 nM | 282 nM | 0.759 nM | CN(C)CCC(Oc1ccc(OCCCN2CCCCC2)cc1)c1ccccc1 (stereo not drawn) [Example 41, Dimethyl-{3-phenyl-3-[4-(3-piperidin-1-yl-propoxy)-phenoxy]-propyl}-amine] |
| 2 nM | 33 nM | – | 1.2 nM | CCC(C)N1CCN(C(=O)c2ccc(C(CCN(C)C)Oc3ccc(C(F)(F)F)cc3)cc2)CC1 (stereo not drawn) [Example 52, (4-sec-Butyl-piperazin-1-yl)-{4-[3-dimethylamino-1-(4-trifluoromethyl-phenoxy)-propyl]-phenyl}-methanone] |
| 24 nM | 168 nM | – | 17.8 nM | CN(C)CCC(Oc1ccc(C#CCCN2CCCCC2)cc1)c1ccc(C(F)(F)F)cc1 (stereo not drawn) [Example 60, Dimethyl-[3-[4-(4-piperidin-1-yl-but-1-ynyl)-phenoxy]-3-(4-trifluoromethyl-phenyl)-propyl]-amine] |
| 7 nM | 30 nM | – | 11.2 nM | CN(C)CCC(Oc1ccc(C(F)(F)F)cc1)c1ccc(CN2CCN(C3CCCC3)CC2)cc1 (stereo not drawn) [Example 51, [3-[4-(4-Cyclopentyl-piperazin-1-ylmethyl)-phenyl]-3-(4-trifluoromethyl-phenoxy)-propyl]-dimethyl-amine] |
| 2 nM | 27 nM | – | 9.33 nM | CC(C)N1CCN(Cc2ccc(C(CCN(C)C)Oc3ccc(C(F)(F)F)cc3)cc2)CC1 (stereo not drawn) [Example 55, [3-[4-(4-Isopropyl-piperazin-1-ylmethyl)-phenyl]-3-(4-trifluoromethyl-phenoxy)-propyl]-dimethyl-amine] |
| 5 nM | 37 nM | – | 18.6 nM | CCC(CC)N1CCN(Cc2ccc(C(CCN(C)C)Oc3ccc(C(F)(F)F)cc3)cc2)CC1 (stereo not drawn) [Example 54, [3-{4-[4-(1-Ethyl-propyl)-piperazin-1-ylmethyl]-phenyl}-3-(4-trifluoromethyl-phenoxy)-propyl]-dimethyl-amine] |
| 1 nM | 44 nM | – | 0.977 nM | CN(C)CCC(Oc1ccc2[nH]ccc2c1)c1ccc(OCCCN2CCCCC2)cc1 (stereo not drawn) [Example 19, {3-(1H-Indol-5-yloxy)-3-[4-(3-piperidin-1-yl-propoxy)-phenyl]-propyl}-dimethyl-amine] |
| 3 nM | 53 nM | – | 1.48 nM | CN(C)CCC(Oc1ccc(C(F)(F)F)cc1)c1ccc(C(=O)N2CCN(C3CCCC3)CC2)cc1 (stereo not drawn) [Example 50, (4-Cyclopentyl-piperazin-1-yl)-{4-[3-dimethylamino-1-(4-trifluoromethyl-phenoxy)-propyl]-phenyl}-methanone] |
| 2 nM | 65 nM | – | 1.48 nM | CC(C)N1CCC(Oc2ccc(OC(CCN(C)C)c3ccc(C(F)(F)F)cc3)cc2)CC1 (stereo not drawn) [Example 45, [3-[4-(1-Isopropyl-piperidin-4-yloxy)-phenoxy]-3-(4-trifluoromethylphenyl)-propyl]-dimethyl-amine] |
| 8 nM | 102 nM | – | 2.45 nM | CCC(CC)N1CCN(C(=O)c2ccc(C(CCN(C)C)Oc3ccc(C(F)(F)F)cc3)cc2)CC1 (stereo not drawn) [Example 53, {4-[3-Dimethylamino-1-(4-trifluoromethyl-phenoxy)-propyl]-phenyl}-[4-(1-ethyl-propyl)-piperazin-1-yl]-methanone] |
| 2 nM | – | – | 0.933 nM | CC(C)N1CCN(C(=O)c2ccc(C(CCN(C)C)Oc3ccc(C(F)(F)F)cc3)cc2)CC1 (stereo not drawn) [Example 39, {4-[3-Dimethylamino-1-(4-trifluoromethyl-phenoxy)-propyl]-phenyl}-(4-isopropyl-piperazin-1-yl)-methanone] |
| 0.9 nM | 5 nM | 25 nM | – | CNCCC(Oc1ccccc1)c1ccc(OCCCN2CCCCC2)cc1 (stereo not drawn) [Example 72, Methyl-{3-phenoxy-3-[4-(3-piperidin-1-yl-propoxy)-phenyl]-propyl}-amine] |
